# Data: the supplement of paper PMC4862054
# System: CAL-51
# Details: 72 h
# Experimental: (§1)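 Drug sensitivity and resistance testing (DSRT) of breast cancer cell lines in 384-well plates, 5 concentrations in 10-fold dilutions over a compound-specific 10,000-fold range. After 72 h, cytotoxicity was read by CellTox Green fluorescence and viability by CellTiter-Glo luminescence (multiplexed), normalised to DMSO and benzethonium chloride controls. EC50 is the inflection point of the fitted dose-response curve (bottom asymptote free, so it can be relative for partial curves) and is censored at the highest tested concentration. Rows with DSS 0 (no meaningful response) were excluded.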
row,Compound,"EC50, CellTox Green"
1,COc1cc2c(NC3CCN(C(C)C)CC3)nc(C3CCCCC3)nc2cc1OCCCN1CCCC1 [UNC0638],1650 nM
2,COc1cc([C@@H]2c3cc4c(cc3[C@@H](O[C@@H]3O[C@@H]5CO[C@@H](c6cccs6)O[C@H]5[C@H](O)[C@H]3O)[C@H]3COC(=O)[C@H]23)OCO4)cc(OC)c1O [Teniposide],879 nM
3,O=C(Cc1ccc(-c2ccc(OCCN3CCOCC3)cc2)cn1)NCc1ccccc1 [KX2-391],23.8 nM

# System: CAL-85-1
# Details: 72 h
# Experimental: as §1
row,Compound,"EC50, CellTox Green"
1,CC(=O)Nc1cccc(-n2c(=O)n(C3CC3)c(=O)c3c(Nc4ccc(I)cc4F)n(C)c(=O)c(C)c32)c1 [Trametinib],71.5 nM
2,C=CC(=O)N1CCC[C@@H](n2nc(-c3ccc(Oc4ccccc4)cc3)c3c(N)ncnc32)C1 [Ibrutinib],416 nM
3,COc1cc2c(NC3CCN(C(C)C)CC3)nc(C3CCCCC3)nc2cc1OCCCN1CCCC1 [UNC0638],2440 nM
4,COc1cc([C@@H]2c3cc4c(cc3[C@@H](O[C@@H]3O[C@@H]5CO[C@@H](c6cccs6)O[C@H]5[C@H](O)[C@H]3O)[C@H]3COC(=O)[C@H]23)OCO4)cc(OC)c1O [Teniposide],2390 nM
5,O=C(Cc1ccc(-c2ccc(OCCN3CCOCC3)cc2)cn1)NCc1ccccc1 [KX2-391],22.1 nM

# System: DU-4475
# Details: 72 h
# Experimental: as §1
row,Compound,"EC50, CellTox Green"
1,CC(=O)Nc1cccc(-n2c(=O)n(C3CC3)c(=O)c3c(Nc4ccc(I)cc4F)n(C)c(=O)c(C)c32)c1 [Trametinib],2.32 nM
2,COc1cc([C@@H]2c3cc4c(cc3[C@@H](O[C@@H]3O[C@@H]5CO[C@@H](c6cccs6)O[C@H]5[C@H](O)[C@H]3O)[C@H]3COC(=O)[C@H]23)OCO4)cc(OC)c1O [Teniposide],1620 nM

# System: HCC1599
# Details: 72 h
# Experimental: as §1
row,Compound,"EC50, CellTox Green"
1,COc1cc2c(NC3CCN(C(C)C)CC3)nc(C3CCCCC3)nc2cc1OCCCN1CCCC1 [UNC0638],1440 nM
2,COc1cc([C@@H]2c3cc4c(cc3[C@@H](O[C@@H]3O[C@@H]5CO[C@@H](c6cccs6)O[C@H]5[C@H](O)[C@H]3O)[C@H]3COC(=O)[C@H]23)OCO4)cc(OC)c1O [Teniposide],350 nM
3,O=C(Cc1ccc(-c2ccc(OCCN3CCOCC3)cc2)cn1)NCc1ccccc1 [KX2-391],267 nM

# System: HCC1937
# Details: 72 h
# Experimental: as §1
row,Compound,"EC50, CellTox Green"
1,COc1cc2c(NC3CCN(C(C)C)CC3)nc(C3CCCCC3)nc2cc1OCCCN1CCCC1 [UNC0638],2140 nM
2,COc1cc([C@@H]2c3cc4c(cc3[C@@H](O[C@@H]3O[C@@H]5CO[C@@H](c6cccs6)O[C@H]5[C@H](O)[C@H]3O)[C@H]3COC(=O)[C@H]23)OCO4)cc(OC)c1O [Teniposide],100 nM
3,O=C(Cc1ccc(-c2ccc(OCCN3CCOCC3)cc2)cn1)NCc1ccccc1 [KX2-391],5000 nM

# System: HDQ-P1
# Details: 72 h
# Experimental: as §1
row,Compound,"EC50, CellTox Green"
1,C=CC(=O)N1CCC[C@@H](n2nc(-c3ccc(Oc4ccccc4)cc3)c3c(N)ncnc32)C1 [Ibrutinib],> 1000 nM
2,COc1cc2c(NC3CCN(C(C)C)CC3)nc(C3CCCCC3)nc2cc1OCCCN1CCCC1 [UNC0638],4720 nM
3,COc1cc([C@@H]2c3cc4c(cc3[C@@H](O[C@@H]3O[C@@H]5CO[C@@H](c6cccs6)O[C@H]5[C@H](O)[C@H]3O)[C@H]3COC(=O)[C@H]23)OCO4)cc(OC)c1O [Teniposide],2380 nM
4,O=C(Cc1ccc(-c2ccc(OCCN3CCOCC3)cc2)cn1)NCc1ccccc1 [KX2-391],4110 nM

# System: Hs578T
# Details: 72 h
# Experimental: as §1
row,Compound,"EC50, CellTox Green"
1,COc1cc([C@@H]2c3cc4c(cc3[C@@H](O[C@@H]3O[C@@H]5CO[C@@H](c6cccs6)O[C@H]5[C@H](O)[C@H]3O)[C@H]3COC(=O)[C@H]23)OCO4)cc(OC)c1O [Teniposide],4000 nM
2,O=C(Cc1ccc(-c2ccc(OCCN3CCOCC3)cc2)cn1)NCc1ccccc1 [KX2-391],523 nM

# System: MCF-10A
# Details: 72 h
# Experimental: as §1
row,Compound,"EC50, CellTox Green"
1,CC(=O)Nc1cccc(-n2c(=O)n(C3CC3)c(=O)c3c(Nc4ccc(I)cc4F)n(C)c(=O)c(C)c32)c1 [Trametinib],79.2 nM
2,COc1cc2c(NC3CCN(C(C)C)CC3)nc(C3CCCCC3)nc2cc1OCCCN1CCCC1 [UNC0638],2230 nM
3,O=C(Cc1ccc(-c2ccc(OCCN3CCOCC3)cc2)cn1)NCc1ccccc1 [KX2-391],59.8 nM

# System: MDA-MB-231
# Details: 72 h
# Experimental: as §1
row,Compound,"EC50, CellTox Green"
1,CC(=O)Nc1cccc(-n2c(=O)n(C3CC3)c(=O)c3c(Nc4ccc(I)cc4F)n(C)c(=O)c(C)c32)c1 [Trametinib],0.4 nM
2,COc1cc2c(NC3CCN(C(C)C)CC3)nc(C3CCCCC3)nc2cc1OCCCN1CCCC1 [UNC0638],1650 nM
3,COc1cc([C@@H]2c3cc4c(cc3[C@@H](O[C@@H]3O[C@@H]5CO[C@@H](c6cccs6)O[C@H]5[C@H](O)[C@H]3O)[C@H]3COC(=O)[C@H]23)OCO4)cc(OC)c1O [Teniposide],1190 nM

# System: MDA-MB-436
# Details: 72 h
# Experimental: as §1
row,Compound,"EC50, CellTox Green"
1,COc1cc2c(NC3CCN(C(C)C)CC3)nc(C3CCCCC3)nc2cc1OCCCN1CCCC1 [UNC0638],4240 nM
2,O=C(Cc1ccc(-c2ccc(OCCN3CCOCC3)cc2)cn1)NCc1ccccc1 [KX2-391],> 10000 nM

# System: MDA-MB-453
# Details: 72 h
# Experimental: as §1
row,Compound,"EC50, CellTox Green"
1,Nc1ncn([C@H]2C[C@H](O)[C@@H](CO)O2)c(=O)n1 [Decitabine],> 10000 nM
2,C=CC(=O)N1CCC[C@@H](n2nc(-c3ccc(Oc4ccccc4)cc3)c3c(N)ncnc32)C1 [Ibrutinib],943 nM
3,COc1cc2c(NC3CCN(C(C)C)CC3)nc(C3CCCCC3)nc2cc1OCCCN1CCCC1 [UNC0638],2520 nM

# System: MDA-MB-468
# Details: 72 h
# Experimental: as §1
row,Compound,"EC50, CellTox Green"
1,Nc1ncn([C@H]2C[C@H](O)[C@@H](CO)O2)c(=O)n1 [Decitabine],> 10000 nM
2,COc1cc2c(NC3CCN(C(C)C)CC3)nc(C3CCCCC3)nc2cc1OCCCN1CCCC1 [UNC0638],2380 nM
3,COc1cc([C@@H]2c3cc4c(cc3[C@@H](O[C@@H]3O[C@@H]5CO[C@@H](c6cccs6)O[C@H]5[C@H](O)[C@H]3O)[C@H]3COC(=O)[C@H]23)OCO4)cc(OC)c1O [Teniposide],4760 nM
4,O=C(Cc1ccc(-c2ccc(OCCN3CCOCC3)cc2)cn1)NCc1ccccc1 [KX2-391],19.4 nM

# System: MFM-223
# Details: 72 h
# Experimental: as §1
row,Compound,"EC50, CellTox Green"
1,COc1cc2c(NC3CCN(C(C)C)CC3)nc(C3CCCCC3)nc2cc1OCCCN1CCCC1 [UNC0638],2920 nM
2,COc1cc([C@@H]2c3cc4c(cc3[C@@H](O[C@@H]3O[C@@H]5CO[C@@H](c6cccs6)O[C@H]5[C@H](O)[C@H]3O)[C@H]3COC(=O)[C@H]23)OCO4)cc(OC)c1O [Teniposide],835 nM
3,O=C(Cc1ccc(-c2ccc(OCCN3CCOCC3)cc2)cn1)NCc1ccccc1 [KX2-391],328 nM
